Assay results as given in patent US20210193322A1, “NETWORK METHODS FOR NEURODEGENERATIVE DISEASES” (Genting TauRx Diagnostic Centre SDN BHD, priority 2018, published 2021).

Legend:
bvFTD = details: cited from earlier work
AD diagnosed patients = test: Structural correlation network analysis (MRI cortical thickness and surface area correlation matrices, node degree) in AD patients; format: in vivo, human

| SMILES | treatment benefit in bvFTD (bvFTD) | number of inverse/compensatory non-homologous cortical thickness correlations compared with healthy elderly controls (AD diagnosed patients; 54 AD patients with CDR 0.5 only, baseline and week 65, LMTM 8 mg/day monotherapy, vs 202 healthy elderly, FIGS. 27A-27D) | number of inverse/compensatory non-homologous surface area correlations compared with healthy elderly controls (AD diagnosed patients; 54 AD patients with CDR 0.5 only, baseline and week 65, LMTM 8 mg/day monotherapy, vs 202 healthy elderly, FIGS. 28A-28D) | cortical thickness networks compared with healthy elderly controls (AD diagnosed patients; 96 AD patients (CDR 0.5, 1 or 2), baseline and week 65, LMTM 8 mg/day monotherapy, vs 202 healthy elderly, FIGS. 25A-25D) | surface area networks compared with healthy elderly controls (AD diagnosed patients; 96 AD patients (CDR 0.5, 1 or 2), baseline and week 65, LMTM 8 mg/day monotherapy, vs 202 healthy elderly, FIGS. 26A-26D) | compensatory network correlations (especially non-homologous, positive and inverse correlations) (AD diagnosed patients; summary statement) | cortical thickness correlations, within-lobe (positive) and between-lobe compensatory (inverse) (AD diagnosed patients; week 65 vs baseline, LMTM 8 mg/day monotherapy, 96 AD patients, FIGS. 21A-21B) | surface area correlations, within-lobe (positive) and between-lobe compensatory (inverse) (AD diagnosed patients; week 65 vs baseline, LMTM 8 mg/day monotherapy, 96 AD patients, FIGS. 23A-23B) | effect on cortical thickness structural correlation networks (correlation matrix) (AD diagnosed patients; week 65 vs baseline, LMTM 8 mg/day with symptomatic AD treatments (ach1), 445 AD patients, FIGS. 19A-19B) | effect on non-homologous inter-lobar node degree (cortical thickness and surface area, positive and inverse correlations) (AD diagnosed patients; week 65 vs week 0, LMTM 8 mg/day as add-on, ach1 group, FIGS. 20A-20D) | number of positive and inverse non-homologous cortical thickness correlations (inter-lobar node degree) (AD diagnosed patients; week 65 vs week 0, LMTM 8 mg/day monotherapy, ach0 group, FIGS. 22A-22B) | number of positive and inverse/compensatory surface area correlations (non-homologous inter-lobar node degree) (AD diagnosed patients; week 65 vs week 0, LMTM 8 mg/day monotherapy, ach0 group, FIGS. 24A-24B) |
| --- | --- | --- | --- | --- | --- | --- | --- | --- | --- | --- | --- | --- |
| CC12CC3CC(C)(C1)CC(N)(C3)C2 [memantine] | no treatment benefit | – | – | – | – | – | – | – | – | – | – | – |
| CN(C)c1ccc2c(c1)Sc1cc(N(C)C)ccc1N2 [LMTM, leuco-methylthioninium bis(hydromethanesulfonate)] | – | equivalent to the normal elderly controls | either equivalent to or lower than normal elderly controls | brings the cortical thickness networks closer to normal | normalizes surface area networks | reduce compensatory network correlations | major reduction in thickness correlations | significant reductions in surface area correlations | minimal effect | minimal overall effect | significant reduction | significant reduction |
